{
  "source": "ChEMBL document CHEMBL1158147",
  "about": "“Ultraviolet-mediated cytotoxic activity of phenylheptatriyne from Bidens pilosa L” (J Nat Prod, 1979)",
  "key": {"[1]": {"tested_on": "Nannizzia gypsea", "experiment": "Phototoxicity against Microsporum gypseum at 5 ug/disk in dark", "format": "functional, organism-based"}, "[2]": {"tested_on": "Sporobolomyces", "experiment": "Phototoxicity against Sporobolomyces sp. Y138 at 5 ug/disk in presence of long wave UV light", "format": "functional, organism-based"}, "[3]": {"tested_on": "Enterococcus faecalis", "experiment": "Phototoxicity against Streptococcus faecalis at 5 ug/disk in presence of cool-white fluorescent light", "format": "functional, organism-based"}, "[4]": {"tested_on": "Fusarium sp.", "experiment": "Phototoxicity against Fusarium sp. at 5 ug/disk in presence of long wave UV light", "format": "functional, organism-based"}, "[5]": {"tested_on": "Saccharomyces cerevisiae", "experiment": "Effect on Saccharomyces cerevisiae assessed as viable cell count at 10 ug/ml in petroleum ether after 16 Joules/cm'2 UV irradiation for 180 mins", "format": "functional"}, "[6]": {"tested_on": "Torula", "experiment": "Phototoxicity against Torula sp. at 5 ug/disk in presence of cool-white fluorescent light", "format": "functional, organism-based"}, "[7]": {"tested_on": "Proteus mirabilis", "experiment": "Phototoxicity against Proteus mirabilis UBC 5 at 5 ug/disk in presence of cool-white fluorescent light", "format": "functional, organism-based"}, "[8]": {"tested_on": "Paraphyton cookei", "experiment": "Phototoxicity against Microsporum cookei at 5 ug/disk in dark", "format": "functional, organism-based"}, "[9]": {"tested_on": "Staphylococcus epidermidis", "experiment": "Phototoxicity against Staphylococcus albus at 5 ug/disk in presence of long wave UV light", "format": "functional, organism-based"}, "[10]": {"experiment": "Effect on human skin fibroblast cells assessed as viable cell count at 10 ug/ml in petroleum ether after 3.53 Joules/cm UV irradiation for 40 mins by trypan blue exclusion method", "format": "ADME, cell-based", "settings": "read-out: Activity"}, "[11]": {"experiment": "Effect on human skin fibroblast cells assessed as viable cell count at 10 ug/ml in petroleum ether after 5.33 Joules/cm UV irradiation for 60 mins by trypan blue exclusion method", "format": "ADME, cell-based", "settings": "read-out: Activity"}, "[12]": {"tested_on": "Candida albicans", "experiment": "Phototoxicity against Candida albicans at 5 ug/disk in dark", "format": "functional, organism-based"}, "[13]": {"tested_on": "Candida albicans", "experiment": "Phototoxicity against Candida albicans at 2.5 ug/disk after UV irradiation for 180 mins", "format": "functional, organism-based"}, "[14]": {"tested_on": "Candida albicans", "experiment": "Phototoxicity against Candida albicans at 2.5 ug/disk after UV irradiation for 15 mins", "format": "functional", "settings": "light or radiation study, 0.25 h, read-out: IZ"}, "[15]": {"tested_on": "DNA", "experiment": "Photochemical activity against denatured calf thymus DNA at 10 ug by hyperchromicity test", "format": "nucleic-acid assay", "settings": "Bos taurus"}, "[16]": {"tested_on": "Saccharomyces cerevisiae", "experiment": "Effect on Saccharomyces cerevisiae assessed as viable cell count at 10 ug/ml in petroleum ether after 1.33 Joules/cm'2 UV irradiation for 15 mins", "format": "functional"}, "[17]": {"tested_on": "Escherichia coli", "experiment": "Phototoxicity against Escherichia coli at 5 ug/disk in presence of long wave UV light", "format": "functional, organism-based"}, "[18]": {"tested_on": "Saccharomyces cerevisiae", "experiment": "Effect on Saccharomyces cerevisiae assessed as viable cell count at 10 ug/ml in petroleum ether in dark after 15 mins", "format": "functional"}, "[19]": {"tested_on": "DNA", "experiment": "Photochemical activity against denatured calf thymus DNA at 10 ug in dark after 30 mins by hyperchromicity test", "format": "nucleic-acid assay", "settings": "Bos taurus"}, "[20]": {"tested_on": "Proteus mirabilis", "experiment": "Phototoxicity against Proteus mirabilis UBC 5 at 5 ug/disk in dark", "format": "functional, organism-based"}, "[21]": {"experiment": "Effect on human skin fibroblast cells assessed as viable cell count at 10 ug/ml in petroleum ether after 8.00 Joules/cm UV irradiation for 90 mins by trypan blue exclusion method", "format": "ADME, cell-based", "settings": "read-out: Activity"}, "[22]": {"tested_on": "Microsporum canis", "experiment": "Phototoxicity against Microsporum canis at 5 ug/disk in presence of cool-white fluorescent light", "format": "functional, organism-based"}, "[23]": {"tested_on": "Enterococcus faecalis", "experiment": "Phototoxicity against Streptococcus fecalis at 5 ug/disk in dark", "format": "functional, organism-based"}, "[24]": {"tested_on": "Proteus mirabilis", "experiment": "Phototoxicity against Proteus mirabilis UBC 5 at 5 ug/disk in presence of long wave UV light", "format": "functional, organism-based"}},
  "note": "Active and inactive are the calls of the source. The rule behind the calls is not given here.",
  "data": [
    {"smiles": "CC#CC#CC#Cc1ccccc1", "note": "[PHENYLHEPTATRIYNE]", "values": [
      {"measurement": "Activity", "setting": "[1]", "value": "inactive"},
      {"measurement": "Activity", "setting": "[2]", "value": "Active"},
      {"measurement": "Activity", "setting": "[3]", "value": "Active"},
      {"measurement": "Activity", "setting": "[4]", "value": "Active"},
      {"measurement": "Activity", "setting": "[5]", "value": 0},
      {"measurement": "Activity", "setting": "[6]", "value": "inactive"},
      {"measurement": "Activity", "setting": "[7]", "value": "inactive"},
      {"measurement": "Activity", "setting": "[8]", "value": "inactive"},
      {"measurement": "Activity", "setting": "[9]", "value": "Active"},
      {"measurement": "viability at 40 min, 10 ug/ml", "setting": "[10]", "value": 50, "unit": "%"},
      {"measurement": "viability at 1 h, 10 ug/ml", "setting": "[11]", "value": 0, "unit": "%"},
      {"measurement": "Activity", "setting": "[12]", "value": "inactive"},
      {"measurement": "Activity", "setting": "[13]", "value": "inactive"},
      {"measurement": "zone of inhibition at 2.5 µg/disc", "setting": "[14]", "value": 11, "unit": "mm"},
      {"measurement": "Activity", "setting": "[15]", "value": 0.18},
      {"measurement": "Activity", "setting": "[16]", "value": 2.57},
      {"measurement": "Activity", "setting": "[17]", "value": "Active"},
      {"measurement": "Activity", "setting": "[18]", "value": 24.2},
      {"measurement": "Activity", "setting": "[19]", "value": 0.17},
      {"measurement": "Activity", "setting": "[20]", "value": "inactive"},
      {"measurement": "viability at 1.5 h, 10 ug/ml", "setting": "[21]", "value": 0, "unit": "%"},
      {"measurement": "Activity", "setting": "[22]", "value": "Active"},
      {"measurement": "Activity", "setting": "[23]", "value": "inactive"},
      {"measurement": "Activity", "setting": "[24]", "value": "Active"}
    ]}
  ]
}
